Reference: patent US8603751B2, “Mycobacterial disease detection, treatment, and drug discovery” (priority 2006, dated 2013)
Entries after “also recorded” stand apart in the source; their conditions may differ.

Tests used:
Msm cells = assay: Effect of screened compounds on cell viability (control plates of the M-PFC screen); settings: at high concentrations
[1] = target: T1, Esat6-Cfp10 (Rv3875-Rv3874) interaction (Mycobacterium tuberculosis, UniProt P9WNK5+P9WNK7); assay: M-PFC counter-screen with the Esat6-Cfp10 interacting pair; type: cell-based
T1 construct: The complete open reading frames (ORF) were cloned into pUAB100 and pUAB200; Gly10 linker + mDHFR fragment F[1,2]; Gly10 linker + mDHFR fragment F[3]; expressed in transfected cells; host or cells: Mycobacterium smegmatis

[2] = target: DevS(HKD)-DevR interaction (Mycobacterium tuberculosis, UniProt P9WMF9); assay: M-PFC TRIM plate assay of the DevS(HKD)-DevR interaction; type: cell-based; settings: 10 and 25 μg/mL, TRIM plates, FIG. 12
Source text: Additionally, whether inhibition of DevR dimerization effected upstream interactions with DevR and DevS (Rv3132c), a corresponding sensor histidine kinase involved in the Mycobacterium dormancy pathway was investigated.

Msm = settings: on 7H11
Mycobacterial cells = assay: Viability of Mycobacterial cells with rapamycin; settings: rapamycin concentrations as high as 200 μg/mL

Sequence of DevS(HKD)-DevR interaction (P9WMF9 whole entry, looked up): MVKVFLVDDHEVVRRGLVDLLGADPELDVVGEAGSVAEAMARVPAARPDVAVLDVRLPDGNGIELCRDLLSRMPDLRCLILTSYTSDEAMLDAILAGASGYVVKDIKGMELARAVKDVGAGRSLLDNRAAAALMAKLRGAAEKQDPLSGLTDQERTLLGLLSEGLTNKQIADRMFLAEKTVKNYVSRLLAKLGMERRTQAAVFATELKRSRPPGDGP
T1 sequence (P9WNK7 whole entry, the tested form may be a part): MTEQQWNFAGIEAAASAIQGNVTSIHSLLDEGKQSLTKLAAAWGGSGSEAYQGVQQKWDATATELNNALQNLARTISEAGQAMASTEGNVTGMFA
T1 sequence (P9WNK5 whole entry, the tested form may be a part): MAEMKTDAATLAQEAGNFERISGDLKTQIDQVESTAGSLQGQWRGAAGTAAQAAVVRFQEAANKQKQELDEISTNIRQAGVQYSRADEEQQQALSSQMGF

Cl.Cn1c(=N)n(CC(=O)c2cc(C(C)(C)C)c(O)c(C(C)(C)C)c2)c2ccccc21 [1-(3,5-di-tert-butyl-4-hydroxyphenyl)-2-(2-imino-3-methyl-2,3-dihydro-1H-benzimidazol-1-yl)ethanone hydrochloride]
effect on cell viability (Msm cells): effect cell viability at high concentrations

CC(=O)NS(=O)(=O)c1ccc(NC(=O)CCc2ccccc2)cc1 [N-(4-[(acetylamino)sulfonyl]phenyl)-3-phenylpropanamide]
effect on the Esat6-Cfp10 interaction [1]: unaffected | disruption of the DevS(HKD)-DevR interaction [2]: disrupt the DevS(HKD)-DevR interaction; also recorded: capable of disrupting the DevS(HKD)-DevR interaction

COc1cc(Cc2cnc(N)nc2N)cc(OC)c1OC [TRIM, trimethoprim]
TRIM concentration to which Msm is sensitive (Msm): ~40 µg/mL

CO[C@H]1C[C@@H]2CC[C@@H](C)[C@@](O)(O2)C(=O)C(=O)N2CCCC[C@H]2C(=O)O[C@H]([C@H](C)C[C@@H]2CC[C@@H](O)[C@H](OC)C2)CC(=O)[C@H](C)/C=C(\C)[C@@H](O)[C@@H](OC)C(=O)[C@H](C)C[C@H](C)/C=C/C=C/C=C/1C [rapamycin]
viability of the Mycobacterial cells (Mycobacterial cells): not effected
